Test results reported in ChEMBL document CHEMBL3046688, “Antitumor and Anti-Pneumocystis Carinii Activities of Novel Bisbenzamidines” (Med Chem Res, 2005).

What was measured:
[1] = Binding affinity to Poly (dA-dT) DNA at 1:5 compound to DNA base pair ratio
MCF7 = assay: Cytotoxicity against Homo sapiens (human) MCF7 cells at 100 uM after 48 hr by SRB assay relative to control; format: cell-based; settings: mcf7, 48 h
A498 = assay: Growth inhibition of Homo sapiens (human) A498 cells after 48 hr by SRB assay; format: cell-based; settings: a498, 48 h
[2] = Selectivity index, ratio of GI50 for human tumor cells to IC50 for Pneumocystis carini
DNA = assay: Binding affinity to Bos taurus (calf) thymus DNA at 1:5 compound to DNA base pair ratio; format: nucleic-acid assay
SF-268 = assay: Cytotoxicity against Homo sapiens (human) SF268 cells at 100 uM after 48 hr by SRB assay relative to control; format: cell-based; settings: sf-268, 48 h
NCI-H460 = assay: Cytotoxicity against Homo sapiens (human) NCI-H460 cells at 100 uM after 48 hr by SRB assay relative to control; format: cell-based; settings: nci-h460, 48 h
CAKI-1 = assay: Growth inhibition of Homo sapiens (human) Caki1 cells after 48 hr by SRB assay; format: cell-based; settings: caki-1, 48 h
SN12C = assay: Growth inhibition of Homo sapiens (human) SN12C cells after 48 hr by SRB assay; format: cell-based
Pneumocystis carinii [3] = assay: Antimicrobial activity against Pneumocystis carinii assessed as ATP level detection by bioluminescence assay; format: functional, organism-based
Pneumocystis carinii [4] = assay: Ratio of pentamidine IC50 to compound IC50 for Pneumocystis carinii assessed as ATP level detection by bioluminescence assay; format: functional
[5] = Growth inhibition of Homo sapiens (human) ovarian cancer cells after 48 hr by SRB assay; format: cell-based; settings: cancer cell lines
SR = assay: Growth inhibition of Homo sapiens (human) SR cells after 48 hr by SRB assay; format: cell-based
Malme-3M = assay: Growth inhibition of Homo sapiens (human) MALME-3M cells after 48 hr by SRB assay; format: cell-based

SMILES | ΔTm [1] [°C] | ΔTm (DNA) [°C] | IC50 (Pneumocystis carinii [3]) [nM] | Activity (MCF7) [%] | pGI50 (A498) | Selectivity Index [2] | Activity (SF-268) [%] | Activity (NCI-H460) [%] | pGI50 (CAKI-1) | pGI50 (SN12C) | Ratio IC50 (Pneumocystis carinii [4]) | Activity [5] | pGI50 (SR) | pGI50 (Malme-3M) | Activity (A498) | Activity (SN12C)
N=C(N)c1ccc(OCCCCCOc2ccc(C(=N)N)cc2)cc1 [PENTAMIDINE] | 20.6 | 11.6 | – | – | – | 20 | – | – | – | – | – | – | – | – | – | –
N=C(N)c1ccc(NC(=O)CCCCC(=O)Nc2ccc(C(=N)N)cc2)cc1 | 14.4 | 8.7 | – | 34 | – | >50000 | 52 | 75 | – | – | 167 | – | – | – | – | –
N=C(N)c1ccc(NC(=O)CCCC(=O)Nc2ccc(C(=N)N)cc2)cc1 | 11.4 | 5.6 | – | 122 | – | >33333 | 121 | 105 | – | – | 167 | – | – | – | – | –
N=C(N)c1ccc(OCc2cccc(COc3ccc(C(=N)N)cc3)c2)cc1 | 23.9 | 14 | 2600 | 0 | – | 3 | 0 | 0 | – | – | – | Non-toxic | – | – | – | –
CCCCNC(=N)c1ccc(N2CCCN(c3ccc(C(=N)NCCCC)cc3)CC2)cc1 | 13.3 | 11.8 | 357 | 39 | 6.8 | 36 | 101 | 17 | – | – | – | – | 6.2 | 6.4 | – | –
N=C(N)c1ccc(COc2ccccc2OCc2ccc(C(=N)N)cc2)cc1 | -0.1 | 0.1 | 1700 | 42 | 5.1 | 24 | 27 | 5 | 5.1 | 5.1 | – | – | – | – | – | –
N=C(N)c1ccc(OC(=O)c2ccc(C(=O)Oc3ccc(C(=N)N)cc3)cc2)cc1 [BIS(4-CARBAMIMIDOYLPHENYL)TEREPHTHALATE] | 10.4 | 9.9 | – | 79 | – | >8 | 94 | 96 | – | – | – | – | – | – | – | –
N#Cc1ccc(N2CCCN(c3ccc(C#N)cc3)CC2)cc1 | – | – | – | 70 | – | – | 101 | 92 | – | – | – | – | – | – | – | –

Continued, in another order:

ΔTm [1] [°C] | ΔTm (DNA) [°C] | IC50 (Pneumocystis carinii [3]) [nM] | SMILES | Activity (MCF7) [%] | pGI50 (A498) | Selectivity Index [2] | Activity (SF-268) [%] | Activity (NCI-H460) [%] | pGI50 (CAKI-1) | pGI50 (SN12C) | Ratio IC50 (Pneumocystis carinii [4]) | Activity [5] | pGI50 (SR) | pGI50 (Malme-3M) | Activity (A498) | Activity (SN12C)
23.1 | 15 | 2000 | N=C(N)c1ccc(N2CCCN(c3ccc(C(=N)N)cc3)CC2)cc1 | 87 | 5.1 | 32 | 94 | 44 | 5.1 | 5.1 | – | – | – | – | – | –
23.6 | 15.3 | 1400 | N=C(NC1CC1)c1ccc(N2CCCN(c3ccc(C(=N)NC4CC4)cc3)CC2)cc1 | 87 | – | >71 | 104 | 71 | – | – | – | – | – | – | – | –
-0.2 | 0 | > 125000 | N#Cc1ccc(N2CCN(c3ccc(C#N)cc3)CC2)cc1 | 102 | – | – | 105 | 106 | – | – | – | – | – | – | – | –
23.9 | 14.5 | 5400 | N=C(NC1CC1)c1ccc(N2CCN(c3ccc(C(=N)NC4CC4)cc3)CC2)cc1 | 108 | – | >19 | 115 | 74 | – | – | – | – | – | – | – | –
17.9 | 12.2 | 3000 | c1cc(N2CCN(c3ccc(C4=NCCCN4)cc3)CC2)ccc1C1=NCCCN1 | 77 | – | >33 | 93 | 18 | – | – | – | – | – | – | Toxic | Toxic
21.3 | 15.5 | 4500 | c1cc(N2CCCN(c3ccc(C4=NCCCN4)cc3)CC2)ccc1C1=NCCCN1 | 42 | – | 18 | 55 | 28 | – | – | – | – | – | – | Toxic | Toxic
